For twelve molecules, TGI and GI50 results are on record in PubChem BioAssay (NCI).

Test systems include A498 renal; CCRF-CEM leukemia; KM12 colon; LOX IMVI melanoma; MCF7 breast; NCI-H23 lung; NCI-H460 lung; OVCAR-8 ovarian; SF-268 CNS; SK-OV-3 ovarian; SNB-19 CNS; U251 CNS.
What all share (assay): growth of human tumour cells (NCI), 48 h

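Test compounds were applied to cells in 96-well plates for 48 hours at 5 doses. GI50 marks 50% less growth. TGI marks complete inhibition of growth.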

On to `CNc1ccc(-c2nc3cc(C)ccc3o2)cc1`, for which the TGI in the assay with A498 renal was 77.8 µM; with CCRF-CEM leukemia, greater than 100 µM; with KM12 colon, greater than 100 µM; with LOX IMVI melanoma it was greater than 100 µM; in the assay with MCF7 breast, greater than 100 µM; in the assay with NCI-H23 lung it was greater than 100 µM. Moreover, the TGI is greater than 100 µM with NCI-H460 lung; greater than 100 µM with OVCAR-8 ovarian; greater than 100 µM in the assay with SF-268 CNS; 61 µM in the assay with SK-OV-3 ovarian; greater than 100 µM in the assay with SNB-19 CNS; greater than 100 µM with U251 CNS.

On to `CCOC(=O)Nc1c(C#N)[n+]([O-])c2cc(Cl)c(Cl)cc2[n+]1[O-]`, for which the TGI with A498 renal was determined as 25 µM; in the assay with CCRF-CEM leukemia it was 22.9 µM; in the assay on KM12 colon, 64.8 µM; with LOX IMVI melanoma, 27.9 µM; with MCF7 breast, 41.3 µM; in the assay on NCI-H23 lung it was 53.9 µM. Further, the TGI with NCI-H460 lung was determined as 34.5 µM; with OVCAR-8 ovarian, 37.2 µM; with SF-268 CNS it was 34.3 µM; in the assay with SK-OV-3 ovarian, 66 µM; with SNB-19 CNS, 65.9 µM; in the assay with U251 CNS, 32.6 µM.

Turning to `CN(C(=O)Cc1ccc(Cl)c(Cl)c1)[C@H]1CCCC[C@@H]1[N+]1(C)CCCC1`, the TGI in the assay with A498 renal, with KM12 colon, with LOX IMVI melanoma, in the assay on MCF7 breast, in the assay with NCI-H23 lung and in the assay on OVCAR-8 ovarian was greater than 100 µM in each case. In addition, the TGI with SF-268 CNS, in the assay with SK-OV-3 ovarian, with SNB-19 CNS and in the assay with U251 CNS was greater than 100 µM each time.

As to `NCCCn1c2ccccc2c2c3c(c4c(c21)CCC(O)CC4)C(=O)NC3=O` (centres undefined), the TGI amounted to 22.8 µM with A498 renal; 10.4 µM in the assay with CCRF-CEM leukemia; 10.7 µM with KM12 colon; 2.92 µM in the assay with LOX IMVI melanoma; 3.58 µM with MCF7 breast; 14.3 µM with NCI-H23 lung. Also, the TGI in the assay with NCI-H460 lung was 14 µM; with OVCAR-8 ovarian it was 21.6 µM; in the assay with SF-268 CNS, 4.43 µM; in the assay on U251 CNS it was 13.1 µM.

Turning to `O=C(CC/C=C(/CS(=O)(=O)c1ccccc1)S(=O)(=O)c1ccccc1)c1ccccc1`, the TGI in the assay with A498 renal, in the assay with CCRF-CEM leukemia, in the assay with KM12 colon, with LOX IMVI melanoma, in the assay with NCI-H23 lung and with NCI-H460 lung was greater than 100 µM in each case. Besides, the TGI with OVCAR-8 ovarian, in the assay with SK-OV-3 ovarian, in the assay on SNB-19 CNS and in the assay on U251 CNS was greater than 100 µM throughout.

Regarding `CC(=O)[C@@H]1CCC=C2CC[C@]3(C)[C@@H](CC[C@@H]4[C@@]5(C)CCCNC(C)(C)[C@@H]5CC[C@]43C)[C@H]21`, the GI50 in the assay with A498 renal was 2.03 µM; in the assay with CCRF-CEM leukemia, 2.27 µM; with KM12 colon it was 1.93 µM; in the assay with MCF7 breast, 1.37 µM; in the assay on OVCAR-8 ovarian, 1.99 µM; in the assay on SK-OV-3 ovarian it was 1.81 µM. Also, in the assay with U251 CNS, the GI50 is 1.76 µM. Besides, the TGI is 3.79 µM with A498 renal; 5.63 µM in the assay with CCRF-CEM leukemia; 3.6 µM in the assay with KM12 colon; 2.92 µM in the assay on MCF7 breast; 3.94 µM with OVCAR-8 ovarian; 3.37 µM in the assay on SK-OV-3 ovarian. In the assay on U251 CNS, the TGI is 3.27 µM.

In the case of `COc1cccc(-c2ccc3c4c2O[C@H]2c5[nH]c6ccccc6c5C[C@@]5(O)[C@@H](C3)N(CC3CC3)CC[C@]425)c1`, the TGI with A498 renal was 6.83 µM; with CCRF-CEM leukemia, greater than 100 µM; in the assay with KM12 colon it was 3.26 µM; in the assay on LOX IMVI melanoma, 3.09 µM; in the assay with MCF7 breast it was 3.06 µM; in the assay with NCI-H23 lung it was 5.27 µM. The TGI is 3.22 µM in the assay with NCI-H460 lung; 3.11 µM in the assay on OVCAR-8 ovarian; 3.37 µM in the assay on SF-268 CNS; 4.23 µM in the assay on SNB-19 CNS; 3.15 µM in the assay on U251 CNS.

For the molecule `COc1ccc(S(=O)(=O)O)cc1-n1nc(C(=O)Nc2ccccc2)n[n+]1-c1cc(S(=O)(=O)[O-])ccc1OC`, the TGI with A498 renal, in the assay on CCRF-CEM leukemia, with KM12 colon, in the assay on MCF7 breast, in the assay with NCI-H23 lung and in the assay on NCI-H460 lung was greater than 100 µM each time. Also, the TGI in the assay with SF-268 CNS, in the assay with SK-OV-3 ovarian, in the assay with SNB-19 CNS and in the assay with U251 CNS was greater than 100 µM in each case.

With `CC(=O)NCCC1CN(C(=O)/C=C\C#C[Si](C)(C)C)c2ccccc21` (centres undefined), the TGI was greater than 100 µM in the assay on A498 renal; greater than 100 µM in the assay with CCRF-CEM leukemia; greater than 100 µM in the assay on KM12 colon; 44.3 µM in the assay with LOX IMVI melanoma; greater than 100 µM in the assay on MCF7 breast; 28.4 µM with NCI-H23 lung. In addition, the TGI with NCI-H460 lung is greater than 100 µM; in the assay with OVCAR-8 ovarian, greater than 100 µM; in the assay with SF-268 CNS, greater than 100 µM; with SK-OV-3 ovarian, greater than 100 µM; in the assay with SNB-19 CNS, 93.7 µM.

Regarding `Nc1nc2c(c(=O)[nH]1)N(C=O)C(CNc1ccc(C(=O)N[C@@H](CCC(=O)O)C(=O)O)cc1)CN2` (some centres undefined), the TGI with CCRF-CEM leukemia was greater than 31.4 µM; in the assay with KM12 colon it was greater than 125 µM; in the assay on LOX IMVI melanoma, greater than 125 µM; with MCF7 breast, greater than 125 µM; in the assay on NCI-H23 lung, greater than 125 µM; with NCI-H460 lung, greater than 125 µM. Moreover, the TGI with OVCAR-8 ovarian, in the assay with SF-268 CNS, with SK-OV-3 ovarian, with SNB-19 CNS and in the assay on U251 CNS was greater than 125 µM throughout.

Regarding `O=C(Nc1c[nH]c(=O)[nH]c1=O)C(Cl)Cl`, the TGI with A498 renal, in the assay on CCRF-CEM leukemia, with KM12 colon, with LOX IMVI melanoma, with MCF7 breast and with NCI-H23 lung was greater than 100 µM throughout. In addition, the TGI in the assay with OVCAR-8 ovarian, with SK-OV-3 ovarian, in the assay on SNB-19 CNS and with U251 CNS was greater than 100 µM throughout.

Regarding `Cc1sc2nc(-c3cc([N+](=O)[O-])c(Cl)cc3Cl)c(/C=N/N=C(N)N)n2c1C`, the TGI in the assay with A498 renal is 38.6 µM; with CCRF-CEM leukemia, greater than 100 µM; in the assay on KM12 colon it was 19.5 µM; with NCI-H23 lung, 18.7 µM; in the assay on NCI-H460 lung it was 54.7 µM; in the assay with OVCAR-8 ovarian, 31.6 µM. Further, the results for the TGI in the assay with SF-268 CNS and with U251 CNS were 66.1 µM and greater than 100 µM, respectively.
